What all share (type): functional
Test [1] concerns Ostrinia nubilalis. As to the kind of experiment: Antifeedant activity against Ostrinia nubilalis (European corn borer) larvae assessed as amount of weight gain by the insect at 0.40% of diet dry weight after 5 days relative to control.
Test [2] deals with Ostrinia nubilalis. Briefly: Antifeedant activity against Ostrinia nubilalis (European corn borer) larvae assessed as amount of food consumed at 0.20% of diet dry weight after 5 days relative to control.
The test system of test [3] is Ostrinia nubilalis. As to the kind of experiment: Antifeedant activity against Ostrinia nubilalis (European corn borer) larvae assessed as amount of food consumed at 0.40% of diet dry weight after 5 days relative to control.
Test [4] concerns Ostrinia nubilalis. Briefly: Antifeedant activity against Ostrinia nubilalis (European corn borer) larvae assessed as feeding rate at 0.80% of diet dry weight after 5 days relative to control.
Test [5] relates to Ostrinia nubilalis. As to the kind of experiment: Antifeedant activity against Ostrinia nubilalis (European corn borer) larvae assessed as amount excreted at 0.10% of diet dry weight after 5 days relative to control.
In test [6] the test system is Ostrinia nubilalis. As to the kind of experiment: Antifeedant activity against Ostrinia nubilalis (European corn borer) larvae assessed as amount excreted at 0.40% of diet dry weight after 5 days relative to control.
Test [7] relates to Ostrinia nubilalis. Briefly: Effect on growth of female Ostrinia nubilalis (European corn borer) larvae assessed as pupal weight at 0.10% of diet dry weight after 6 days relative to control.
For test [8], the system named is Ostrinia nubilalis. Briefly: Effect on growth of female Ostrinia nubilalis (European corn borer) larvae assessed as larval duration at 0.001% of diet dry weight after 6 days relative to control.
The subject of test [9] is Ostrinia nubilalis. As to the kind of experiment: Effect on growth of male Ostrinia nubilalis (European corn borer) larvae assessed as larval duration at 0.001% of diet dry weight after 6 days relative to control.
Test [10] deals with Ostrinia nubilalis. Briefly: Effect on growth of female Ostrinia nubilalis (European corn borer) larvae assessed as larval duration at 0.01% of diet dry weight after 6 days relative to control.
For test [11], the system named is Ostrinia nubilalis. As to the kind of experiment: Effect on growth of female Ostrinia nubilalis (European corn borer) larvae assessed as larval duration at 0.10% of diet dry weight after 6 days relative to control.
The subject of test [12] is Ostrinia nubilalis. As to the kind of experiment: Antifeedant activity against Ostrinia nubilalis (European corn borer) larvae assessed as excretion rate at 0.80% of diet dry weight after 5 days relative to control.
Test [13] relates to Ostrinia nubilalis. As to the kind of experiment: Antifeedant activity against Ostrinia nubilalis (European corn borer) larvae assessed as growth rate at 0.60% of diet dry weight after 5 days relative to control.
Test [14] concerns Ostrinia nubilalis. Briefly: Antifeedant activity against Ostrinia nubilalis (European corn borer) larvae assessed as feeding rate at 0.10% of diet dry weight after 5 days relative to control.
Test [15] concerns Ostrinia nubilalis. Briefly: Antifeedant activity against Ostrinia nubilalis (European corn borer) larvae assessed as feeding rate at 0.40% of diet dry weight after 5 days relative to control.
In test [16] the test system is Ostrinia nubilalis. As to the kind of experiment: Effect on growth of female Ostrinia nubilalis (European corn borer) larvae assessed as adult emergence at 0.001% of diet dry weight after 6 days relative to control.
Test [17] has as its system Ostrinia nubilalis. As to the kind of experiment: Effect on growth of female Ostrinia nubilalis (European corn borer) larvae assessed as adult emergence at 0.10% of diet dry weight after 6 days relative to control.
For test [18], the system named is Ostrinia nubilalis. As to the kind of experiment: Effect on growth of female Ostrinia nubilalis (European corn borer) larvae assessed as adult emergence at 1% of diet dry weight after 6 days relative to control.
Test [19] deals with Ostrinia nubilalis. As to the kind of experiment: Effect on growth of male Ostrinia nubilalis (European corn borer) larvae assessed as adult emergence at 1% of diet dry weight after 6 days relative to control.
For test [20], the system named is Ostrinia nubilalis. As to the kind of experiment: Effect on growth of female Ostrinia nubilalis (European corn borer) larvae assessed as pupal duration at 0.10% of diet dry weight after 6 days relative to control.
For test [21], the system named is Ostrinia nubilalis. Briefly: Effect on growth of male Ostrinia nubilalis (European corn borer) larvae assessed as pupal weight at 0.01% of diet dry weight after 6 days relative to control.

Regarding `CC(C)=CCc1c2c(c3occ(-c4ccc(O)c(O)c4)c(=O)c3c1O)C=CC(C)(C)O2` [POMIFERIN], the Activity worked out at 18.2% with Ostrinia nubilalis [1]; 36.9% with Ostrinia nubilalis [2]; 34.2% in the test on Ostrinia nubilalis [3]; 20.7% in the test with Ostrinia nubilalis [4]; 30.4% in the test with Ostrinia nubilalis [5]; 5.4% in the test with Ostrinia nubilalis [6]. The Activity in the test with Ostrinia nubilalis [7] is 100 mg; in the test on Ostrinia nubilalis [12] it was -10%; in the test with Ostrinia nubilalis [13] it was 10%; in the test on Ostrinia nubilalis [14], -1%; in the test on Ostrinia nubilalis [15], 29%; in the test with Ostrinia nubilalis [16], 50%. The Activity with Ostrinia nubilalis [17] is listed as 67%; in the test with Ostrinia nubilalis [18], 67%; in the test on Ostrinia nubilalis [19], 60%; in the test on Ostrinia nubilalis [21], 72 mg. Also, the Time amounted to 11.7 days in the test on Ostrinia nubilalis [8]; 10.7 days in the test with Ostrinia nubilalis [9]; 11.7 days with Ostrinia nubilalis [10]; 12.1 days in the test on Ostrinia nubilalis [11]; 6.3 days in the test on Ostrinia nubilalis [20].

For the compound `CC(C)=CCc1c2c(c3occ(-c4ccc(O)cc4)c(=O)c3c1O)C=CC(C)(C)O2` [OSAJIN], the Activity with Ostrinia nubilalis [1] is reported as 17%; with Ostrinia nubilalis [2], -12%; in the test with Ostrinia nubilalis [3], 30.5%; in the test with Ostrinia nubilalis [4] it was 27.5%; in the test on Ostrinia nubilalis [5], -1.4%; in the test with Ostrinia nubilalis [6], 17.6%. Moreover, the Activity is given as 102 mg in the test on Ostrinia nubilalis [7]; 4% in the test on Ostrinia nubilalis [12]; 1.7% in the test on Ostrinia nubilalis [13]; -7% with Ostrinia nubilalis [14]; 23% with Ostrinia nubilalis [15]; 54% with Ostrinia nubilalis [16]. The Activity turned out to be 50% with Ostrinia nubilalis [17], 85% in the test with Ostrinia nubilalis [18], 43% with Ostrinia nubilalis [19] and 75 mg in the test with Ostrinia nubilalis [21]. Moreover, the Time with Ostrinia nubilalis [8] turned out to be 11.7 days; with Ostrinia nubilalis [9], 11.4 days; in the test with Ostrinia nubilalis [10], 12.6 days; in the test with Ostrinia nubilalis [11], 11.8 days; in the test on Ostrinia nubilalis [20], 7.1 days.

For the origin of these results see ChEMBL document CHEMBL3045511, “Effects of Two Isoflavonoids, Osajin and Pomiferin, from Maclura pomifera for Growth and Feeding Disruption in Ostrinia nubilalis” (2001).
